In patent US20160008367A1, “Combination Comprising a Cyclin Dependent Kinase 4 or Cyclin Dependent Kinase (CDK4/6) Inhibitor for Treating Cancer” (Novartis AG, priority 2010, published 2016):

Tests used:
[1] = test system: Jeko-1 mantle cell lymphoma cells; test: Cell Titer-Glo cell viability assay, single agents and combinations; format: cell-based; conditions: 72 hrs
Method: The Cell Titer-Glo Luminscent Cell Viability Assay (Promega#G7572) generates a luminescent signal that is proportional to the number of metabolically active cells present in a reaction, based on the quantitation of ATP. Cell Titer-Glo Reagent was prepared by thawing a vial of Cell Titer-Glo Buffer in a 37° C. water bath. The entire bottle of buffer was then added to the bottle of lyophilized Cell Titer-Glo Substrate provided in the kit. Lyophilized substrate was allowed to dissolve; the solution was then mixed by inversion and was ready for use. Jeko-1 cells were diluted to a density of 200,000 cells/mL and cultured in T250 flask. Before treatment (time 0), 3×100 micro liter aliquots were removed and placed into a black 96 well plate with clear bottom (Costar#3904). 50 uL of CTG reagent was added to each well. The plate was placed on an Orbital Shaker, protected from light and incubated using setting 4 for 30 minutes at RT. The plate was then read using the Envision Luminometer, and results exported. The cells remaining in the T250 flasks were either left untreated or treated with single agents or in combinations. […] Results were exported and analyzed using Microsoft Excel. The percentage of viable cells as compared to control growth was calculated using following equation: […]
A is the CTG read under treatment condition
B is the CTG read for Time 0 cells
C is CTG read for 72 hr untreated cells […]

Jeko-1 xenograft = test: Jeko-1 mantle cell lymphoma xenograft model; format: in vivo; conditions: 35 day treatment period, single agents
From the text: A Jeko-1 xenograft model was used to measure anti-tumor activity in a 35 day treatment period of Compound A1, Compound B1, and the combination of Compounds A1 and B1. Significant anti-tumor activity was observed.

[2] = test system: PANC-1 pancreatic carcinomas; test: PANC-1 pancreatic carcinoma xenograft model; format: in vivo, nude mice; conditions: PANC-1 xenograft, po x 21 days
Method: The PANC-1 pancreatic carcinomas used for implantation were maintained by serial engraftment in nude mice. […] Tumor size, in mm3, was calculated from: Tumor Volume=(w2×l)/2 where w=width and l=length, in mm, of the tumor. […] Group 1 mice received the Compound A1 and Compound B1 vehicles, and served as controls for all analyses. […] Each animal was euthanized when tumor volume reached 1200 mm3, or on the last day of the study ([…]). For each animal whose tumor reached the endpoint volume, the time to endpoint (TTE) was calculated by the following equation: TTE=(log10(endpoint volume)-b)/m Where TTE is expressed in days, endpoint volume is in mm3, b is the intercept, and m is the slope of the line obtained by linear regression of a log-transformed tumor growth data set. […] The calculated TTE is usually less than the day on which an animal is euthanized for tumor size. […] Treatment efficacy was determined from tumor growth delay (TGD), which is defined as the increase in the median TTE for a treatment group compared with the control group: TGD=T-C, expressed in days, or as a percentage of the median TTE of the control group: % TGD=[(T-C)/C]×100, where: T=median TTE for a treatment group, C=median TTE for the designated control group.

| SMILES | % cell growth compared to the vehicle control ([1]; mTOR inhibitor alone at 1, 2.5 and 5 nM (all three concentrations)) | anti-tumor activity (Jeko-1 xenograft) | anti-tumor activity ([2]; Compound B1 10 mg/kg qd) | % cell growth compared to the vehicle control ([1]; 100 nM CDK4/6 inhibitor alone) [%] | anti-tumor activity ([2]; Compound A1 250 mg/kg qd) |
| --- | --- | --- | --- | --- | --- |
| COC1CC2CC[C@@H](C)C(O)(O2)C(=O)C(=O)N2CCCCC2C(=O)O[C@H](C(C)C[C@@H]2CCC(OCCO)[C@H](OC)C2)CC(=O)C(C)/C=C(\C)C(O)C(OC)C(=O)[C@H](C)CC(C)/C=C/C=C/C=C/1C (stereo in doubt) [Compound B1, (1R,9S,12S,15R,16E,18R,19R,21R,23S,24E,26E,28E,30S,32S,35R)-1,18-dihydroxy-12-{(1R)-2-[(1S,3R,4R)-4-(2-hydroxyethoxy)-3-methoxycyclohexyl]-1-methylethyl}-19,30-dimethoxy-15,17,21,23,29,35-hexamethyl-11,36-dioxa-4-aza-tricyclo[30.3.1.04,9]hexatriaconta-16,24,26,28-tetraene-2,3,10,14,20-pentaone] | approximately 30% | had anti-tumor activity | neither Compound A1 nor Compound B1 had significant anti-tumor activity |  |  |
| CN(C)C(=O)c1cc2cnc(Nc3ccc(N4CCNCC4)cn3)nc2n1C1CCCC1 [Compound A1, 7-Cyclopentyl-2-(5-piperazin-1-yl-pyridin-2-ylamino)-7H-pyrrolo[2,3-d]pyrimidine-6-carboxylic acid dimethylamide] |  | had anti-tumor activity |  | 70 | neither Compound A1 nor Compound B1 had significant anti-tumor activity |
